Assay: Adsorption of drugs: recovery from supernatant by ESI-MS after incubation on glass, coated or uncoated polystyrene
Format: physicochemical
Conditions: 100 nM drug, FIG. 4, samples stored in glass vials up to 3 days
Protocol: Different concentrations of the drugs were dissolved in 2 ml H2O from a stock solution of 0.5 mM in 50% acetonitrile/50% H2O, and added to coated or uncoated polystyrene containers (2 mL solution added to each circular container of diameter 33 mm) as well as glass containers acting as reference material. Drug concentrations up to 250 nM were investigated. At different time points 250 μL of supernatant was sampled for analysis. […] The samples were analyzed by ESI-MS using 50% H2O/50% MeOH/0.1% acetic acid running buffer (0.1 mL/min).
The effectiveness of the low-binding Bz+NHS-PEG coatings were probed by extended incubation of coated and uncoated polystyrene in 100 nM solutions of drugs spanning a wide range of hydrophobicity. Glass surfaces were included as reference to the polystyrene. The supernanants of the incubation solutions were sampled at different time points, and the drug concentrations determined by electrospray ionization mass spectrometry (ESI-MS) after addition of an internal standard.
The recovery was calculated as the ratio of the drug concentration in the supernatant to the initially added drug concentration.

For `CCCCc1oc2ccccc2c1C(=O)c1cc(I)c(OCCN(CC)CC)c(I)c1` [amiodarone], the “adsorption on glass surface” value was “large adsorption even on the glass surface”.
